In US12201671B2, “Polypeptides for treatment of cancer” (Saint Joseph's University, priority 2019, dated 2025):
Where no end group is shown, it is not given here. The star is where a group is joined. Biotin = O=C1N[C@H]2[C@H](CS[C@H]2CCCCC(=O)*)N1

T1: ERα (Homo sapiens, UniProt P03372)
T1 sequence (P03372 1-595): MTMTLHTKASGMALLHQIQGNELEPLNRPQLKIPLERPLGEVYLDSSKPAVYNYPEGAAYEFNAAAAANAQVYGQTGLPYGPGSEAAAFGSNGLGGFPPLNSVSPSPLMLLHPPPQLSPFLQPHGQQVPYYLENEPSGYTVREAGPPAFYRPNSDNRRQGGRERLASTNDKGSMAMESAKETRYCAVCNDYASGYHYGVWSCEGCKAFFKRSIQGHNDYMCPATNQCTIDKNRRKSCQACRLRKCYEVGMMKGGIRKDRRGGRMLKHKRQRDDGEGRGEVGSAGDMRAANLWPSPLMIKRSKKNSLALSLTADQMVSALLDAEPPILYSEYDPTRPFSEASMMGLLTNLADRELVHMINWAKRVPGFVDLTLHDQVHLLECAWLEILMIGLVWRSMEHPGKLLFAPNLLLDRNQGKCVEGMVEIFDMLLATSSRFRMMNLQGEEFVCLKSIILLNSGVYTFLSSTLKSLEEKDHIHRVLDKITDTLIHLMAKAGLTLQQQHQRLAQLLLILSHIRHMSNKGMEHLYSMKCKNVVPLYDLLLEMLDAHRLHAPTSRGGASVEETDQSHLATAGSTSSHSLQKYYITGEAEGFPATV

T2: Estrogen Receptor α (Homo sapiens, UniProt P03372)
T2 sequence (P03372 1-595): T1 sequence (P03372 1-595)

B1: Recombinant Full-Length CAPER HCC1.3: full-length recombinant CAPER (R&D Systems), isoform HCC1.3 (protein)
chain: MADDIDIEAMLEAPYKKDENKLSSANGHEERSKKRKKSKSRSRSHERKRSKSKERKRSRDRERKKSKSRERKRSRSKERRRSRSRSRDRRFRGRYRSPYSGPKFNSAIRGKIGLPHSIKLSRRRSRSKSPFRKDKSPVREPIDNLTPEERDARTVFCMQLAARIRPRDLEEFFSTVGKVRDVRMISDRNSRRSKGIAYVEFVDVSSVPLAIGLTGQRVLGVPIIVQASQAEKNRAAAMANNLQKGSAGPMRLYVGSLHFNITEDMLRGIFEPFGRIESIQLMMDSETGRSKGYGFITFSDSECAKKALEQLNGFELAGRPMKVGHVTERTDASSASSFLDSDELERTGIDLGTTGRLQLMARLAEGTGLQIPPAAQQALQMSGSLAFGAVADLQTRLSQQTEASALAAAASVQPLATQCFQLSNMFNPQTEEEVGWDTEIKDDVIEECNKHGGVIHIYVDKNSAQGNVYVKCPSIAAAIAAVNALHGRWFAGKMITAAYVPLPTYHNLFPDSMTATQLLVPSRR

Legend:
c-Jun [1] = target: T3, c-Jun (Homo sapiens, UniProt P05412); assay: Binding kinetics by biolayer interferometry (BLI), Octet HTX; conditions: 1:1 model; for koff: read-out: K off, binding to c-Jun; for kon: read-out: K on, binding to c-Jun
T3 construct: purchased Abcam
T3 sequence (P05412 whole entry): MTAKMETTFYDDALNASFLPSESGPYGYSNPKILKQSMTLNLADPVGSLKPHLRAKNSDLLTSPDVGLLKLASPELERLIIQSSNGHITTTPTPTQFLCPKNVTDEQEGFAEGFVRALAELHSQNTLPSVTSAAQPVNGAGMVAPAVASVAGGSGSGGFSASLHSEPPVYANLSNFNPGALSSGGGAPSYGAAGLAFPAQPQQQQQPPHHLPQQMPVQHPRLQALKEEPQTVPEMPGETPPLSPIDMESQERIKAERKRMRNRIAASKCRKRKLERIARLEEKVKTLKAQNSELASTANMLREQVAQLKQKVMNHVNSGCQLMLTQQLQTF
Method: The binding kinetics of the peptides and full-length recombinant CAPER (R&D Systems, Minneapolis, MN) with the c-Jun (Abcam, Cambridge, MA) were determined using biolayer interferometry (BLI) on the Octet HTX system (Pall ForteBio, Fremont, CA). Amine Reactive 2nd Generation biosensors (cat #18-5092, Pall ForteBio) were activated with 1-Ethyl-3-[3-dimethylaminopropyl] carbodiimide hydrochloride and N-hydroxysulfosuccinimide (EDC/NHS) (Amine Coupling Kit II, Cat #ACK-001-025, Sierra Sensors, Billerica, MA) and conjugated with an anti-his tag antibody. The reaction was then quenched with 1M ethanolamine (Amine Coupling Kit II, Cat #ACK-001-025, Sierra Sensors). His-tagged recombinant c-Jun was then bound to the tips. The peptides were tested at a series of 2-fold dilutions including a buffer blank. The binding of full-length recombinant CAPER was also tested. Association and dissociation steps were performed for 900s each in 1×HBS-EP+ buffer (cat #BR100669, GE Healthcare Lifesciences, Pittsburgh, PA) supplemented with 450 mM NaCl (Sigma). The background was subtracted from each run and kinetics data was analyzed using ForteBio's Data Analysis Software version 10.0.3.1 using a 1:1 model.

MCF10A cells [2] = assay: Apoptosis assay (Annexin V); format: cell-based; conditions: 20 μM, 7 days, vs DMSO and TAT controls
Method: (§1) Apoptosis was evaluated using both a Muse Caspase 3/7 kit (cat #MCH100108, EMD Millipore) and Muse Annexin V kit (Millipore cat #). Cells were treated for 7 days as described elsewhere herein, at the end of the 7 day dosing period, floating cells were collected and attached cells were washed 1× with PBS and then trypsinized with 0.05% trypsin. Cells were collected and combined with the floating cells. Cells were then counted and diluted to 20,000 cells/mL. For the caspase assay, 50 μL of cells were then incubated with the Muse Caspase 3/7 reagent at 37° C. for 30 min. After incubation 5 μL of 7-ADD dye was added and incubated for 5 min at room temperature. Cells were then analyzed on the Muse Cell Analyzer (Millipore). For the Annexin V assay, 100 μL of cells was then added to 100 μL of Annexin V reagent for 30 min at room temperature. Cells were then analyzed on the Muse Cell Analyzer (Millipore).

MCF7 cells [3] = assay: Apoptosis assays (Muse Caspase 3/7 and Annexin V); format: cell-based; conditions: MCF7, 20 μM, 7 days, in the presence of estrogen
Method: (§2) MCF7 cells were switched to phenol free DMEM (cat #, 11054-020, Life Technologies), with 10% charcoal stripped FBS (cat #A33821-01, Life Technologies), 24 hrs prior to plating. After the starvation period, the cells were plated onto mm plates at cells/plate and allowed to adhere overnight. The next day cells were dosed with 20 μM of CAPER peptides along with a DMSO and TAT only controls with and without estradiol (E2) (cat #, Sigma). Cells were pre-treated with the peptide 4 hrs before the E2 was added. Cells were dosed daily for 7 days. At the end of the 7 day dosing period, floating cells were collected and adherent cells were trypsinized and counted via a hemocytometer
as §1

BT549 cells [4] = assay: Cell count after 7 day treatment; format: cell-based; conditions: BT549, 20 μM daily, 7 days, vs DMSO and TAT controls
Method: (§3) MDA-MB-231, BT549, and MCF10A cells were plated onto 10 cm plates at 50,000 cells per plate, 100,000 cells per plate and 25,000 cells, respectively. The cells were allowed to adhere overnight, the next day cells were with 20 μM of CAPER peptides along with a DMSO and TAT only controls. Cells were dosed daily for 7 days. At the end of the 7 day dosing period, floating cells were collected and adherent cells were trypsinized and counted via a hemocytometer.

MDA-MB-231 cells [5] = assay: Cell count after 7 day treatment; format: cell-based; conditions: MDA-MB-231, 20 μM daily, 7 days, vs DMSO and TAT controls
Method: as §3

MCF10A cells [6] = assay: Cell count after 7 day treatment; format: cell-based; conditions: MCF10A non-tumorigenic, 20 μM daily, 7 days, vs DMSO and TAT controls
Method: as §3

BT549 cells [7] = assay: Cell cycle assay, nocodazole synchronized cells; format: cell-based; conditions: BT549, 20 μM, 7 days
Method: (§4) MDA-MB-231 and BT549 cells were synchronized using nocodazole (cat #Sigma-Aldrich) for 24 hours. The floating cells were then aspirated off and the plate was rinsed with media to collect the loosely attached cells (G2/M fraction). The cells were then plated as described above. A fraction of the treated cells was processed for cell cycle to confirm synchronization. Cells were then treated for 7 days as described above, at the end of the 7 day dosing period, floating cells were collected and attached cells were washed 1× with PBS and then trypsinized with 0.05% trypsin. Cells were collected and combined with the floating cells. Cells were counted and diluted according to the Muse Cell Cycle Kit (cat #MCH100106, EMD Millipore) instructions and samples were then read on the Muse Cell Analyzer.

MDA-MB-231 cells [8] = assay: Cell cycle assay, nocodazole synchronized cells; format: cell-based; conditions: MDA-MB-231, 20 μM, 7 days
Method: as §4

BT549 cells [9] = assay: Apoptosis assays (Muse Caspase 3/7 and Annexin V); format: cell-based; conditions: BT549, 20 μM, 7 days
Method: as §1

MDA-MB-231 cells [10] = assay: Apoptosis assays (Muse Caspase 3/7 and Annexin V); format: cell-based; conditions: MDA-MB-231, 20 μM, 7 days
Method: as §1

ERα = target: T1, ERα; assay: Inhibition of full-length recombinant CAPER binding to ERα
MCF7 cells [11] = assay: Cell count after 7 day treatment with and without estradiol; format: cell-based; conditions: MCF7, 20 μM, 7 days, in the presence of estrogen
Method: as §2

Estrogen Receptor α = target: T2, Estrogen Receptor α; assay: Binding kinetics (BLI) to Estrogen Receptor α; conditions: for koff: read-out: K off, binding to Estrogen Receptor α; for kon: read-out: K on, binding to Estrogen Receptor α
c-Jun [12] = target: T3, c-Jun; assay: BLI competition assay: full-length CAPER binding to peptide-saturated c-Jun; conditions: c-Jun saturated with peptide at 10x KD; compared to CAPER binding without peptide
Method: Competition assays were determined using BLI on the Octet HTX system (Pall ForteBio, Fremont, CA). Amine Reactive 2nd Generation biosensors (cat #18-5092, Pall ForteBio) were activated with 1-Ethyl-3-[3-dimethylaminopropyl] carbodiimide hydrochloride and N-hydroxysulfosuccinimide (EDC/NHS) (Amine Coupling Kit II, Cat #ACK-001-025, Sierra Sensors, Billerica, MA) and conjugated with an anti-his tag antibody. The reaction was then quenched with 1M ethanolamine (Amine Coupling Kit II, Cat #ACK-001-025, Sierra Sensors). Recombinant c-Jun containing a his-tag was then bound to the tips. The peptides were allowed to saturate the receptor at a concentration of 10× the KD of each peptide. After receptor saturation binding of full-length CAPER to the receptor was measured and the signal was compared back to full-length CAPER binding to the receptor in the absence of the peptide. Binding steps were performed for 900s each in 1× HBS-EP+ buffer (cat #BR100669, GE Healthcare Lifesciences, Pittsburgh, PA) supplemented with 450 mM NaCl (Sigma). The background was subtracted from each run and the signal was represented as a % inhibition compared to full-length CAPER binding in the absence of the peptide.

[13] = his-tagged c-Jun on anti-his tips

| Molecule | koff (c-Jun [1]) | kon (c-Jun [1]) | Apoptotic cells (MCF10A cells [2]) | Early apoptotic and apoptotic dead cells (MCF7 cells [3]) | Live cells (MCF7 cells [3]) | Cell number (BT549 cells [4]) | Cell number (MDA-MB-231 cells [5]) | Cell count (MCF10A cells [6]) | Effect on cell cycle (BT549 cells [7]) | Effect on cell cycle (MDA-MB-231 cells [8]) | Early apoptotic and apoptotic dead cells (BT549 cells [9]) | Live cells (BT549 cells [9]) | Early apoptotic and apoptotic dead cells (MDA-MB-231 cells [10]) | Live cells (MDA-MB-231 cells [10]) | Binding of full-length recombinant CAPER to ERα (ERα) | Cell number (MCF7 cells [11]) | koff (Estrogen Receptor α) | kon (Estrogen Receptor α) | KD, binding to c-Jun (c-Jun [1]; [13]) | other results |
| --- | --- | --- | --- | --- | --- | --- | --- | --- | --- | --- | --- | --- | --- | --- | --- | --- | --- | --- | --- | --- |
| Biotin-RLQLMARLAEGTGLQIPPAAQQALQMSGSLAFGAVADLQTRLSQQ (N-terminus assumed) [CAPER peptide HCC1.3] | 0.000337 s⁻¹ | 37900 M⁻¹ s⁻¹ | no significant change | significant increase | significant decrease | significant decrease | significant decrease | no significant change | no effect | no effect | significant increase | significant decrease | significant increase | significant decrease | alter the binding | significant decrease | 0.000115 s⁻¹ | 25400 M⁻¹ s⁻¹ | – | – |
| Biotin-RLQLMARLAEGTGLQIPPAAQQALQMSGSLAFGAVAEFSFVIDLQ (N-terminus assumed) [CAPER peptide HCC1.4] | 0.00098 s⁻¹ | 38300 M⁻¹ s⁻¹ | no significant change | significant increase | significant decrease | significant decrease | significant decrease | no significant change | no effect | no effect | significant increase | significant decrease | significant increase | significant decrease | alter the binding | significant decrease | 0.00172 s⁻¹ | 57100 M⁻¹ s⁻¹ | – | – |
| VGDALQGLRLFSTQASIGAQMEQLAAQPLRAGQMLQLAQASPLRT [CAPER scrambled peptide, scrambled control peptide, reference compound] | – | – | – | – | – | – | – | – | – | – | – | – | – | – | – | – | – | – | could not be determined | Inhibition of full-length recombinant CAPER binding to c-Jun (c-Jun [12]): no significant change |
| YGRKKRRQRRR [TAT only control, reference compound] | – | – | – | – | – | – | – | – | – | – | – | – | – | – | – | – | – | – | could not be determined | – |
| B1 | – | – | – | – | – | – | – | – | – | – | – | – | – | – | – | – | – | – | – | K off, binding to c-Jun (c-Jun [1]): 5.66e-05 s⁻¹; K on, binding to c-Jun (c-Jun [1]): 312000 M⁻¹ s⁻¹; Kd (c-Jun [1]; [13]): 0.18 nM; K off, binding to Estrogen Receptor α (Estrogen Receptor α): 2.34e-05 s⁻¹; K on, binding to Estrogen Receptor α (Estrogen Receptor α): 937000 M⁻¹ s⁻¹ |
